This is an account of results in patent US5866717A, “Metalloproteinase inhibitors” (British Biotech Pharmaceuticals Limited, priority 1994, dated 1999).

Data set [1] in a line: effective blood concentrations after oral administration. The data set is classed as in vivo. The conditions noted are these: no data given.
A further data set addresses T1, Getatinase A (Homo sapiens, UniProt P08253).
T1 sequence (P08253 110-660): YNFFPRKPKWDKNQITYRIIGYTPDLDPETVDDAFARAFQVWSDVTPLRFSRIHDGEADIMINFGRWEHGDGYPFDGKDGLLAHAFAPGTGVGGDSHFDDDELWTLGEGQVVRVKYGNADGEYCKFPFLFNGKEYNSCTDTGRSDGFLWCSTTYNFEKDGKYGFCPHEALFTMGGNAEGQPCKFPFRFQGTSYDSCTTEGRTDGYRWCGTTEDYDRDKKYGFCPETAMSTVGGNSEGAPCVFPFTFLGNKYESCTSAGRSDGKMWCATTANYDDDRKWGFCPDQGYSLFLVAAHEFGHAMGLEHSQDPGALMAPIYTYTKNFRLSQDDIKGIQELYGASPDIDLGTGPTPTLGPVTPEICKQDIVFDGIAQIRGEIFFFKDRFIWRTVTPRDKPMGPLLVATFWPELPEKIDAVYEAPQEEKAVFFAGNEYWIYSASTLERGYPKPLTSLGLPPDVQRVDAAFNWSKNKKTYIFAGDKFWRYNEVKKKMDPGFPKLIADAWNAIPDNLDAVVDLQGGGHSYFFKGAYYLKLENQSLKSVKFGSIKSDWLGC
The data set is described as follows: biochemical.

The target of another data set is Stromelysin-1 (Homo sapiens, UniProt P08254). The data set is described as follows: biochemical.
Sequence of Stromelysin-1 (P08254 100-477, species assumed): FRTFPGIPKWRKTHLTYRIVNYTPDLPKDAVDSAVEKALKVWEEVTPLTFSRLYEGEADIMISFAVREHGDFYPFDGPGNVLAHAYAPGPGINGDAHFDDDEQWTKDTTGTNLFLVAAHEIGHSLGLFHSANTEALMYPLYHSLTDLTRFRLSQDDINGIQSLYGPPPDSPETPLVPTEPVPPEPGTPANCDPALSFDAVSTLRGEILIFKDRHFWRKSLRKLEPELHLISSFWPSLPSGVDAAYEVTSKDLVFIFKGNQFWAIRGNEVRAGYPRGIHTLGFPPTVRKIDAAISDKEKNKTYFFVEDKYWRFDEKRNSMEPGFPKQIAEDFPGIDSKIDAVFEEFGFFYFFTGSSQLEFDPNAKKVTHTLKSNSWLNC
The nature of a further data set: aqueous solubility. It is filed as physicochemical. The conditions noted are these: for solubility: water, read-out: Aq. solubility.
For data set [2], the target named is T2, Human fibroblast collagenase (Homo sapiens, UniProt P03956).
T2 sequence (P03956 100-469): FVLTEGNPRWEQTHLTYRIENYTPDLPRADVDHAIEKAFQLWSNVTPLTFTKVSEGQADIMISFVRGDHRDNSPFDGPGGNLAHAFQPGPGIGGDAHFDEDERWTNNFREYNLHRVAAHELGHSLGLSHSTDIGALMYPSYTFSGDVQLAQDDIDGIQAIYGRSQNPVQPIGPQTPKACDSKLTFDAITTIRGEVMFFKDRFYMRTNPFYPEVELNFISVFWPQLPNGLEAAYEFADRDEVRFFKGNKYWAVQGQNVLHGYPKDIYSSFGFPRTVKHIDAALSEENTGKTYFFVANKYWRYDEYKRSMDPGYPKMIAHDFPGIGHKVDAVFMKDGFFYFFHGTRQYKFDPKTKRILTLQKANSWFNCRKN
The data set is described as follows: biochemical.

Structures are written as SMILES. ≈ marks a conversion by molar mass, not a printed value. Bounds are passed on as bounds.

Take `C=CC[C@H](C(=O)NO)[C@@H](CC(C)C)C(=O)N[C@H](C(=O)NCCOCCOC)C(C)(C)C` [Example 4, 2S-Allyl-N^1-hydroxy-3R-isobutyl-N^4 -{1S-[2-(2-methoxy-ethoxy)-ethylcarbamoyl]-2,2-dimethyl-propyl}-succinamid]: the “effective blood concentrations (in words)” value in data set [1] is “high and prolonged effective blood concentrations”. Moreover, the half-inhibitory concentration (IC50) turned out to be 7 nM against Getatinase A, 40 nM at Stromelysin-1 and 1 nM in data set [2]. Also, the “aqueous solubility (in words)” value in the data set “aqueous solubility” (presently preferred compound) was “good aqueous solubility”. Further, the solubility in “aqueous solubility” was 4700 µg/mL (≈ 10600 µM).

With `COCCOCCOCCNC(=O)[C@@H](NC(=O)[C@H](CC(C)C)[C@H](CSc1cccs1)C(=O)NO)C(C)(C)C` [Example 9, N^4 -Hydroxy-2R-isobutyl-N^1-(1S{2-[2-(2-methoxy-ethoxy)-ethoxy]-ethylcarbamoyl}-2,2-dimethyl-propyl)-3S-(thiophen-2-yl-sulfanylmethyl)-succinamide], the half-maximal inhibitory concentration (IC50) was 9 nM on Getatinase A, 10 nM against Stromelysin-1 and 2 nM in data set [2]. The solubility in “aqueous solubility” came out at 400 µg/mL (≈ 695 µM).

Turning to `CNC(=O)[C@@H](NC(=O)[C@H](CC(C)C)C(CSc1cccs1)C(=O)NO)C(C)(C)C` (stereo partly drawn) [Comparator 3, N^1-(2,2-Dimethyl-1S-methylcarbamoyl-propyl)-N^4-hydroxy-2R -isobutyl-3-(thiophen-2-yl-sulfanylmethyl)-succinamide, reference compound], the IC50 was 20 nM against Getatinase A, 40 nM at Stromelysin-1 and 1 nM in data set [2]. Moreover, the solubility in “aqueous solubility” stood at 180 µg/mL (≈ 406 µM).

On to `C=CC[C@H](C(=O)NO)[C@@H](CC(C)C)C(=O)N[C@H](C(=O)NC)C(C)(C)C` [Comparator 2, 2S-Allyl-N^4-(2,2-Dimethyl-1S-methylcarbamoyl-propyl)-N^4-hydroxy-3R-isobutyl-succinamide, reference compound], for which the 50% inhibitory concentration (IC50) on Getatinase A stood at 15 nM; in data set [2] it was 4 nM. The solubility in the data set “aqueous solubility” worked out at 40 µg/mL (≈ 113 µM).

`C=CC[C@H](C(=O)NO)[C@@H](CC(C)C)C(=O)N[C@H](C(=O)NCC(C)(COC)COC)C(C)(C)C` [Example 6, 2S-Allyl-N^4 -{1S-[2,2-di-(methoxymethyl)-propylcarbamoyl}-2,2-dimethyl-propyl]-N^1-hydroxy-3R-isobutyl-succinamide]: the IC50 against Getatinase A turned out to be 30 nM; at Stromelysin-1, 50 nM; in data set [2], 20 nM. Also, in the data set “aqueous solubility”, the solubility came to 400 µg/mL (≈ 848 µM).

On to `COCCOCOCCNC(=O)[C@@H](NC(=O)[C@H](CC(C)C)[C@H](O)C(=O)NO)C(C)(C)C` [Example 1, 2S, N^1 -Dihydroxy-3R-isobutyl-N^4 -{1S-[2-(2-methoxy-ethoxymethoxy)-ethylcarbamoyl]-2,2-dimethyl-propyl}-succinamide], for which the IC50 on Getatinase A was 15 nM; against Stromelysin-1, 60 nM; in data set [2] it was 10 nM. The solubility in the data set “aqueous solubility” was at least 29600 µg/mL.

As for `CNC(=O)[C@@H](NC(=O)[C@H](CC(C)C)[C@H](O)C(=O)NO)C(C)(C)C` [Comparator 1, N^4-(2,2-Dimethyl-1S-methylcarbamoyl-propyl)-2S, N^1-dihydroxy-3R -isobutyl-succinamide, reference compound], the solubility in the data set “aqueous solubility” came out at 7700 µg/mL (≈ 23200 µM).
